{"source": "patent US9408839B2", "about": "“Antipsychotic treatment based on DRD2 or ANKK1 SNP genotype” (Vanda Pharmaceuticals, Inc., priority 2009, dated 2016)", "key": {"[1]": {"test_system": "schizophrenic patients", "conditions": "cited from earlier work; for time to respond to antipsychotics, -141C Del allele carriers versus -141C Ins allele carriers: rs1799732 SNP; for time to respond to antipsychotics, -141C Del allele carriers versus -141C Ins allele carriers / improvement on treatment, C/C genotype versus non-C/C genotype: schizophrenic patients; for improvement on treatment, C/C genotype versus non-C/C genotype: rs6275 SNP"}, "[2]": {"test_system": "patients with an acute exacerbation of schizophrenia", "test": "Phase III clinical trial of iloperidone, change from baseline in PANSS-T by DRD2/ANKK1 SNP genotype", "assay_type": "in vivo, human", "conditions": "iloperidone 24 mg/d; for PANSS-T mean change: day 14, white patients; for mean change in PANSS-T: day 14, white subpopulation", "method": "The clinical trial evaluated the efficacy of iloperidone in treating patients with diagnosed schizophrenia. The study, its results, and the inferences drawn therefrom are described below.\nA four-week, randomized, double-blind, placebo- and ziprasidone-controlled, multicenter inpatient phase III clinical trial of iloperidone was conducted, including 409 individuals, to assess the efficacy of iloperidone, as measured by changes in the Positive and Negative Syndrome Scale Total (PANSS-T).\nPatients, all diagnosed with an acute exacerbation of schizophrenia, were randomly assigned to one of three groups. A first group (n=218) received 24 mg/d (12 mg bid) of iloperidone, a second group (n=103) received 160 mg/d (80 mg bid) ziprasidone, and a third group (n=105) received a placebo. Efficacy was measured by a change from baseline in PANSS-T score."}}, "data": [{"smiles": "CN(C)CCCN1c2ccccc2Sc2ccc(Cl)cc21", "note": "[chlorpromazine]", "values": [{"measurement": "time to respond to antipsychotics, -141C Del allele carriers versus -141C Ins allele carriers", "setting": "[1]", "result": "significantly longer time to respond"}]}, {"smiles": "O=C(CCCN1CCC(O)(c2ccc(Cl)cc2)CC1)c1ccc(F)cc1", "note": "[haloperidol]", "values": [{"measurement": "improvement on treatment, C/C genotype versus non-C/C genotype", "setting": "[1]", "result": "greater improvement"}]}, {"smiles": "COc1cc(C(C)=O)ccc1OCCCN1CCC(c2noc3cc(F)ccc23)CC1", "note": "[iloperidone, 1-[4-[3-[4-(6-flouro-1,2-benzisoxazol-3-yl)-1-piperidinyl]propoxy]-3-methoxyphenyl]ethanone]", "values": [{"measurement": "PANSS-T mean change", "setting": "[2]; rs2283265 G/T genotype", "result": "−2.4 (±3.0)"}, {"measurement": "PANSS-T mean change", "setting": "[2]; rs2283265 non-G/T genotype", "result": "−11.8 (±2.0)"}, {"measurement": "mean change in PANSS-T", "setting": "[2]; rs1800497 (Taq1A) A1/A2 patients", "result": "−2.1 (±2.7)"}, {"measurement": "mean change in PANSS-T", "setting": "[2]; rs1800497 (Taq1A) non-A1/A2 patients", "result": "−12.7 (±2.1)"}]}, {"smiles": "Cc1nc2n(c(=O)c1CCN1CCC(c3noc4cc(F)ccc34)CC1)CCCC2", "note": "[risperidol]", "values": [{"measurement": "improvement on treatment, C/C genotype versus non-C/C genotype", "setting": "[1]", "result": "greater improvement"}]}, {"smiles": "Cc1nc2n(c(=O)c1CCN1CCC(c3noc4cc(F)ccc34)CC1)CCCC2", "note": "[risperidone]", "values": [{"measurement": "time to respond to antipsychotics, -141C Del allele carriers versus -141C Ins allele carriers", "setting": "[1]", "result": "significantly longer time to respond"}, {"measurement": "response to treatment, -241A allele carriers versus -241G allele carriers", "setting": "[1]; rs1799978 SNP, some patients", "result": "greater response"}]}]}
